Values quoted from earlier work, collected in patent US20100249042A1, “COMPOSITIONS AND METHODS FOR TREATMENT OF EYELASHES AND EYEBROWS” (ProCyte Corporation, priority 2009, published 2010).

Tests used:
[1] = tested on: Dermal papilla cells (DPCs); settings: in vitro; Pyo et al. 2007
[2] = tested on: human hair follicles; settings: ex vivo; Pyo et al. 2007

L-alanyl-L-histidyl-L-lysine:copper(II) [AHK-Cu]
proliferation of DPCs [1]: stimulated
elongation of human hair follicles [2]: stimulated
